“And” between values parts separate entries of the source, which are not always exact repeats. Equal values may be shown once. Inconclusive results and toxic doses are left out. Rule for the calls: active = survival T/C of 150% or more; inactive = T/C below 125% in these data.
Test system: P388 leukemia ip, CD2F1 mice, survival T/C
Experiment: NCI In Vivo Anticancer Drug Screen. Data for tumor model P388 Leukemia (intraperitoneal) in CD2F1 (CDF1) mice
Details: endpoint: median survival time, higher = longer survival
Procedure, shortened: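 Mice carrying the transplanted tumor received test compound or vehicle. Survival was recorded in each group, and the value is the treated-group measurement divided by that of the vehicle-treated control group.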

[1] = dose: 60.0 mg/kg/injection, schedule: Q01DX005 (ip), vehicle: Klucel (hydroxypropylcellulose) (HPC)
[2] = dose: 120.0 mg/kg/injection, schedule: Q01DX005 (ip), vehicle: Klucel (hydroxypropylcellulose) (HPC)
[3] = dose: 240.0 mg/kg/injection, schedule: Q01DX005 (ip), vehicle: Klucel (hydroxypropylcellulose) (HPC)
[4] = dose: 50.0 mg/kg/injection, schedule: Q01DX009 (ip), vehicle: Klucel (hydroxypropylcellulose) (HPC)
[5] = dose: 100.0 mg/kg/injection, schedule: Q01DX009 (ip), vehicle: Klucel (hydroxypropylcellulose) (HPC)
[6] = dose: 200.0 mg/kg/injection, schedule: Q01DX009 (ip), vehicle: Klucel (hydroxypropylcellulose) (HPC)
[7] = dose: 100.0 mg/kg/injection, schedule: Q01DX009 (ip), vehicle: saline with Tween-80
[8] = dose: 200.0 mg/kg/injection, schedule: Q01DX009 (ip), vehicle: saline with Tween-80
[9] = dose: 60.0 mg/kg/injection, schedule: Q01DX005 (ip), vehicle: saline
[10] = dose: 120.0 mg/kg/injection, schedule: Q01DX005 (ip), vehicle: saline
[11] = dose: 240.0 mg/kg/injection, schedule: Q01DX005 (ip), vehicle: saline
[12] = dose: 50.0 mg/kg/injection, schedule: Q01DX009 (ip), vehicle: saline with Tween-80
[13] = dose: 12.5 mg/kg/injection, schedule: Q01DX005 (ip), vehicle: Klucel (hydroxypropylcellulose) (HPC)
[14] = dose: 25.0 mg/kg/injection, schedule: Q01DX005 (ip), vehicle: Klucel (hydroxypropylcellulose) (HPC)
[15] = dose: 25.0 mg/kg/injection, schedule: Q01DX009 (ip), vehicle: saline
[16] = dose: 50.0 mg/kg/injection, schedule: Q01DX009 (ip), vehicle: saline
[17] = dose: 100.0 mg/kg/injection, schedule: Q01DX009 (ip), vehicle: saline
[18] = dose: 200.0 mg/kg/injection, schedule: Q01DX009 (ip), vehicle: saline
[19] = dose: 60.0 mg/kg/injection, schedule: Q01DX005 (ip), vehicle: saline with Tween-80
[20] = dose: 120.0 mg/kg/injection, schedule: Q01DX005 (ip), vehicle: saline with Tween-80
[21] = dose: 240.0 mg/kg/injection, schedule: Q01DX005 (ip), vehicle: saline with Tween-80

Measured: T/C

ClCCN(CCCl)CC(Cl)COc1cccc2ccccc12 (centres undefined)
inactive: dose: 0.62 mg/kg/injection, schedule: Q01DX009 (ip), vehicle: saline 106 % of control and 108 % of control | dose: 1.25 mg/kg/injection, schedule: Q01DX009 (ip), vehicle: saline 100 % of control and 108 % of control | dose: 2.5 mg/kg/injection, schedule: Q01DX009 (ip), vehicle: saline 86 % of control and 97 % of control

Nc1cccc(S(=O)(=O)Nc2c(N)nc(SCC(=O)O)[nH]c2=O)c1
inactive: [1] 100 % of control | [2] 98 % of control | [3] 98 % of control

CSc1ccccc1P(c1ccccc1)c1ccccc1SC
inactive: [4] 90 % of control | [5] 91 % of control | [6] 91 % of control

COc1ccc(OC)c(/C=C/c2ccc3ccccc3n2)c1
inactive: [7] 90 % of control | [8] 90 % of control | dose: 400.0 mg/kg/injection, schedule: Q01DX009 (ip), vehicle: saline with Tween-80 104 % of control

CC1(C(=O)O)CCC2(C)CCC3(C)C(=CC(=O)C4C5(C)CCC(O)C(C)(C)C5CCC43C)C2C1 (centres undefined)
inactive: dose: 25.0 mg/kg/injection, schedule: Q01DX009 (ip), vehicle: Klucel (hydroxypropylcellulose) (HPC) 95 % of control | [4] 100 % of control | dose: 50.0 mg/kg/injection, schedule: Q04DX003 (ip), vehicle: Klucel (hydroxypropylcellulose) (HPC) 105 % of control | [5] 94 % of control | dose: 100.0 mg/kg/injection, schedule: Q04DX003 (ip), vehicle: Klucel (hydroxypropylcellulose) (HPC) 100 % of control | [6] 94 % of control | dose: 200.0 mg/kg/injection, schedule: Q04DX003 (ip), vehicle: Klucel (hydroxypropylcellulose) (HPC) 106 % of control

NC1=N[C@H]2CS[C@@H](CCCCC(=O)ON3C(=O)CCC3=O)[C@H]2N1
inactive: [9] 98 % of control | [10] 100 % of control | [11] 98 % of control

CCCCCCCCCCCCCCOc1ccc(C(C)=O)o1
inactive: [12] 95 % of control | [8] 100 % of control

CCCCCCCN(CCCCCCC)C(=N)c1ccc(OC)c2ccccc12
inactive: dose: 6.25 mg/kg/injection, schedule: Q01DX005 (ip), vehicle: Klucel (hydroxypropylcellulose) (HPC) 101 % of control | [13] 101 % of control | [14] 89 % of control

C1CN2CCN3CCCN(CCN(C1)C2)C3
inactive: dose: 12.5 mg/kg/injection, schedule: Q01DX005 (ip), vehicle: saline 102 % of control | dose: 25.0 mg/kg/injection, schedule: Q01DX005 (ip), vehicle: saline 107 % of control | dose: 50.0 mg/kg/injection, schedule: Q01DX005 (ip), vehicle: saline with Tween-80 101 % of control

CC(=O)OCC12C(OC(C)=O)CC(C)C3(CC(c4ccoc4)OC3=O)C1CCC(=O)C2(O)CCl (centres undefined)
inactive: dose: 0.75 mg/kg/injection, schedule: Q01DX005 (ip), vehicle: saline + alcohol 106 % of control | dose: 1.5 mg/kg/injection, schedule: Q01DX005 (ip), vehicle: saline + alcohol 103 % of control | dose: 3.0 mg/kg/injection, schedule: Q01DX005 (ip), vehicle: saline + alcohol 106 % of control | dose: 6.0 mg/kg/injection, schedule: Q01DX005 (ip), vehicle: saline + alcohol 108 % of control | dose: 12.0 mg/kg/injection, schedule: Q01DX005 (ip), vehicle: saline + alcohol 106 % of control | dose: 12.5 mg/kg/injection, schedule: Q01DX005 (ip), vehicle: saline + Tween-80 + alcohol 92 % of control | dose: 25.0 mg/kg/injection, schedule: Q01DX005 (ip), vehicle: saline + Tween-80 + alcohol 98 % of control | dose: 100.0 mg/kg/injection, schedule: Q01DX005 (ip), vehicle: saline + Tween-80 + alcohol 89 % of control | dose: 150.0 mg/kg/injection, schedule: Q01DX005 (ip), vehicle: saline + Tween-80 + alcohol 91 % of control

C=CCNC(=S)Nc1sc(C)c(C)c1C(=O)OCC
inactive: [12] 100 % of control | [7] 100 % of control | [8] 97 % of control

O=C1CCc2cc(O)ccc21
inactive: [15] 108 % of control | [16] 94 % of control | [17] 98 % of control | [18] 100 % of control

CP1(=S)C=C(N2CCOCC2)CC1 (centres undefined)
inactive: [4] 100 % of control | [5] 100 % of control | [6] 86 % of control

CSc1nc(N)c(NS(=O)(=O)c2ccc(NC(C)=O)cc2)c(=O)[nH]1
inactive: [19] 93 % of control | [20] 91 % of control | [21] 96 % of control

O=C(Cn1c(=O)sc2ccc(Cl)cc21)N1CCN(CCO)CC1
inactive: [15] 105 % of control | [16] 105 % of control | [17] 99 % of control | [18] 94 % of control

CC(=O)Nc1ccc(C(=O)C=O)cc1
inactive: [7] 119 % of control

S=c1cc(S)sc2c1c(=S)sc1nc3ccccn3c(=S)c12
inactive: [13] 96 % of control | [14] 99 % of control and 98 % of control | dose: 50.0 mg/kg/injection, schedule: Q01DX005 (ip), vehicle: Klucel (hydroxypropylcellulose) (HPC) 96 % of control | dose: 100.0 mg/kg/injection, schedule: Q01DX005 (ip), vehicle: Klucel (hydroxypropylcellulose) (HPC) 107 % of control and 94 % of control

Oc1ccc(CCNCc2ccc3c(c2)OCO3)cc1O
inactive: dose: 100.0 mg/kg/injection, schedule: Q04DX002 (ip), vehicle: Klucel (hydroxypropylcellulose) (HPC) 99 % of control | dose: 200.0 mg/kg/injection, schedule: Q04DX002 (ip), vehicle: Klucel (hydroxypropylcellulose) (HPC) 94 % of control

O=C1CCCCCCCC(=O)Nc2ccc3nc4ccccc4c(c3c2)SCCCCCCCCCSc2c3ccccc3nc3ccc(cc23)N1
inactive: [19] 88 % of control | [20] 99 % of control | [21] 96 % of control

C1CC[N-]CC1.C1CC[N-]CC1.[Cl][Pt+2][Cl]
inactive: [14] 119 % of control and 120 % of control

C#CCC(C(=O)OC)N(CC)CC (centres undefined)
inactive: [9] 107 % of control | [10] 111 % of control | [11] 120 % of control

O=C(O)C1C2CC3CC2C(C3)C1C(=O)O (centres undefined)
inactive: [1] 100 % of control | [2] 100 % of control | [3] 99 % of control

CCSCCC(N)C(=O)O (centres undefined)
inactive: dose: 12.5 mg/kg/injection, schedule: Q01DX009 (ip), vehicle: saline with Tween-80 95 % of control | dose: 25.0 mg/kg/injection, schedule: Q01DX009 (ip), vehicle: saline with Tween-80 100 % of control | [12] 100 % of control | dose: 100.0 mg/kg/injection, schedule: Q04DX003 (ip), vehicle: saline with Tween-80 104 % of control | dose: 200.0 mg/kg/injection, schedule: Q04DX003 (ip), vehicle: saline with Tween-80 100 % of control | dose: 400.0 mg/kg/injection, schedule: Q04DX003 (ip), vehicle: saline with Tween-80 109 % of control

CNC(=S)N/N=C/c1nc2ccccc2c(=O)n1-c1ccc(Cl)cc1
inactive: dose: 100.0 mg/kg/injection, schedule: Q01DX001 (ip), vehicle: saline with Tween-80 102 % of control | dose: 200.0 mg/kg/injection, schedule: Q01DX001 (ip), vehicle: saline with Tween-80 98 % of control | dose: 400.0 mg/kg/injection, schedule: Q01DX001 (ip), vehicle: saline with Tween-80 92 % of control

CC(C)c1ccc(OC(=O)Nc2c(Cl)cccc2Cl)cc1
inactive: [19] 108 % of control | [20] 120 % of control | [21] 115 % of control

Cc1ccnc(NS(=O)(=O)c2ccc(N=Nc3nc4[nH]c(N)nc(=S)c4[nH]3)cc2)n1
inactive: dose: 0.2 mg/kg/injection, schedule: Q01DX009 (ip), vehicle: saline with Tween-80 124 % of control | dose: 6.25 mg/kg/injection, schedule: Q01DX009 (ip), vehicle: saline with Tween-80 106 % of control

ClC1(Cl)C2CCCCC21 (centres undefined)
inactive: [12] 100 % of control | [7] 90 % of control
